Where two headings read alike, the source gives them in different places.
Assays:
[1] = target: T1, PI3Kδ (Homo sapiens, UniProt O00329); experiment: Enzyme binding assay (KINOMEscan, DiscoveRx); conditions: PIK3Cδ_h
T1 construct: purchased DiscoveRx Corporation, San Diego (contract service, KINOMEscan)
T1 sequence (O00329 1-1044): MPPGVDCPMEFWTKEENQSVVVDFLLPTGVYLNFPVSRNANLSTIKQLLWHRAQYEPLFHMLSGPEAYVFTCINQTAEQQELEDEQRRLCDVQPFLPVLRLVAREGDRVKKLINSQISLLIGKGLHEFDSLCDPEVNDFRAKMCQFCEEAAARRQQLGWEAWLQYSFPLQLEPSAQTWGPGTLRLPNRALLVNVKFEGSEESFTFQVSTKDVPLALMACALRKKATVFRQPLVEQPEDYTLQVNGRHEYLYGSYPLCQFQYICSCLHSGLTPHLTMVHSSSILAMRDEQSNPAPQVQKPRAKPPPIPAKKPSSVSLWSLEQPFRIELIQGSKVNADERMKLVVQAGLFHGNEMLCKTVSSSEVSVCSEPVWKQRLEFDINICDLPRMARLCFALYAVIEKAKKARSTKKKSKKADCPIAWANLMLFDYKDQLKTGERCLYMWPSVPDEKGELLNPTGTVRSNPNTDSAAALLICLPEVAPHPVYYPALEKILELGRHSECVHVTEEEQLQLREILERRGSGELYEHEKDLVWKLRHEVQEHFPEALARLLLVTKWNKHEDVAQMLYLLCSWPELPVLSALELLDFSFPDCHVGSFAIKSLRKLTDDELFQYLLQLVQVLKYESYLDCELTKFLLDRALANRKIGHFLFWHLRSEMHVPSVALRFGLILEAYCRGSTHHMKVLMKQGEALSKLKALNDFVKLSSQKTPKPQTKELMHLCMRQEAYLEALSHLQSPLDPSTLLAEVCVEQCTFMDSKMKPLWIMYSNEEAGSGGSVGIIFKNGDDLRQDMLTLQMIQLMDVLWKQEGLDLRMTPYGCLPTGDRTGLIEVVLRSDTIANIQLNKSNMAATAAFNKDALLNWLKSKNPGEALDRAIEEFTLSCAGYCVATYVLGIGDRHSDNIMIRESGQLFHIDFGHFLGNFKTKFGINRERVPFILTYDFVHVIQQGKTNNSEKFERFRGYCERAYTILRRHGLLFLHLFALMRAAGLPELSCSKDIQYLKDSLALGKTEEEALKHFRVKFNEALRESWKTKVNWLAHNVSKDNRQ
In short: (§1)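 Compounds were profiled by KINOMEscan to obtain kinase binding affinities.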

[2] = tested on: Akt phosphorylated at Ser473 in PC-3 cells; experiment: Cellular assay: phosphorylation of Akt at Ser473 in PC-3 cells (MSD ELISA); format: cell-based; conditions: PC-3 cells, 60 min compound incubation, MSD ELISA, read-out: IC50 pAkt_S473
In short: (§2)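 After lysis of treated cells (60 min, 37° C, 0.3% DMSO), phospho-Akt levels were measured by MSD electrochemiluminescence ELISA. Potency was derived from concentration-response curves fitted over five concentrations.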

[3] = tested on: Akt phosphorylated at Thr308 in PC-3 cells; experiment: Cellular assay: phosphorylation of Akt at Thr308 in PC-3 cells (MSD ELISA); format: cell-based; conditions: PC-3 cells, 60 min compound incubation, MSD ELISA, read-out: IC50 pAkt_Thr308
In short: as §2

[4] = target: T2, kinase enzymes (Homo sapiens, UniProt P48736); experiment: Enzyme binding assay (KINOMEscan, DiscoveRx), further kinases of Table A; conditions: PIK3Cγ_h
T2 construct: purchased DiscoveRx Corporation, San Diego (contract service, KINOMEscan)
In short: as §1

[5] = target: T3, kinase enzymes (Homo sapiens, UniProt P42336); experiment: as above; conditions: PIK3Cα_h
T3 construct: purchased DiscoveRx Corporation, San Diego (contract service, KINOMEscan)
In short: as §1

[6] = target: T4, kinase enzymes (Homo sapiens, UniProt P42345); experiment: as above; conditions: MTOR_h
T4 construct: purchased DiscoveRx Corporation, San Diego (contract service, KINOMEscan)
In short: as §1

[7] = target: T5, PI3Kβ (Homo sapiens, UniProt P42338); experiment: Enzyme binding assay (KINOMEscan, DiscoveRx); conditions: PIK3Cβ_h, read-out: Kd PIK3Cβ_h
T5 construct: purchased DiscoveRx Corporation, San Diego (contract service, KINOMEscan)
In short: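 Compounds are profiled for binding to the kinase using KINOMEscan. The affinity is then reported as an inhibitor Kd in nanomolar units.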

T2 sequence (P48736 whole entry): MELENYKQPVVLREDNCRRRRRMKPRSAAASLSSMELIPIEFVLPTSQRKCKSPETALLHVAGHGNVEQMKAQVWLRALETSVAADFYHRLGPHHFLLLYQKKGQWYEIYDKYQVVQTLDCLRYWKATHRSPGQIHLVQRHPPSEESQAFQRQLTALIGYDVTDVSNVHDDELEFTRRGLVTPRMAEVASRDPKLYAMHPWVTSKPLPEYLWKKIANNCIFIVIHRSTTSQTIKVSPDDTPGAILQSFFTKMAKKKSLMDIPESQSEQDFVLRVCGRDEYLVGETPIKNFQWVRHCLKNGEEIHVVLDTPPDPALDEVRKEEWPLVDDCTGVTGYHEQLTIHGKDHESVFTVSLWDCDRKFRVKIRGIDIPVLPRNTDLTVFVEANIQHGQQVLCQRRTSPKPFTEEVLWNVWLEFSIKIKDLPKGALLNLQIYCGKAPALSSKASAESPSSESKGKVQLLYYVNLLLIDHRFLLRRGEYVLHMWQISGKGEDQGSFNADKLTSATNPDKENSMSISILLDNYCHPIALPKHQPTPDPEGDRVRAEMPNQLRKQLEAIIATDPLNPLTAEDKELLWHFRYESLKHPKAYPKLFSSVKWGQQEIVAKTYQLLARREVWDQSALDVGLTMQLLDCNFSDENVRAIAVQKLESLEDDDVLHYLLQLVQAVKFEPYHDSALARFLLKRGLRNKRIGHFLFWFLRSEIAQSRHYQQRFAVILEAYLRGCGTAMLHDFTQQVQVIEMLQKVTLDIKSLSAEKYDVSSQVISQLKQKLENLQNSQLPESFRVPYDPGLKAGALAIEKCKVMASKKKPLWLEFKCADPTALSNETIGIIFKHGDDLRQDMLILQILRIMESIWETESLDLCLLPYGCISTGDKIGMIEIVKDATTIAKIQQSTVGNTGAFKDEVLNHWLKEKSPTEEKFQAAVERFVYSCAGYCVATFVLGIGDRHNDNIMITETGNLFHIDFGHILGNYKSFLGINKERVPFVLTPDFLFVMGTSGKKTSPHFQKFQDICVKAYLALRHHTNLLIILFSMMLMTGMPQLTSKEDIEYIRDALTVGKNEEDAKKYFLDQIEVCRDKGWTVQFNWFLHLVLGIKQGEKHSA
T5 sequence (P42338 whole entry): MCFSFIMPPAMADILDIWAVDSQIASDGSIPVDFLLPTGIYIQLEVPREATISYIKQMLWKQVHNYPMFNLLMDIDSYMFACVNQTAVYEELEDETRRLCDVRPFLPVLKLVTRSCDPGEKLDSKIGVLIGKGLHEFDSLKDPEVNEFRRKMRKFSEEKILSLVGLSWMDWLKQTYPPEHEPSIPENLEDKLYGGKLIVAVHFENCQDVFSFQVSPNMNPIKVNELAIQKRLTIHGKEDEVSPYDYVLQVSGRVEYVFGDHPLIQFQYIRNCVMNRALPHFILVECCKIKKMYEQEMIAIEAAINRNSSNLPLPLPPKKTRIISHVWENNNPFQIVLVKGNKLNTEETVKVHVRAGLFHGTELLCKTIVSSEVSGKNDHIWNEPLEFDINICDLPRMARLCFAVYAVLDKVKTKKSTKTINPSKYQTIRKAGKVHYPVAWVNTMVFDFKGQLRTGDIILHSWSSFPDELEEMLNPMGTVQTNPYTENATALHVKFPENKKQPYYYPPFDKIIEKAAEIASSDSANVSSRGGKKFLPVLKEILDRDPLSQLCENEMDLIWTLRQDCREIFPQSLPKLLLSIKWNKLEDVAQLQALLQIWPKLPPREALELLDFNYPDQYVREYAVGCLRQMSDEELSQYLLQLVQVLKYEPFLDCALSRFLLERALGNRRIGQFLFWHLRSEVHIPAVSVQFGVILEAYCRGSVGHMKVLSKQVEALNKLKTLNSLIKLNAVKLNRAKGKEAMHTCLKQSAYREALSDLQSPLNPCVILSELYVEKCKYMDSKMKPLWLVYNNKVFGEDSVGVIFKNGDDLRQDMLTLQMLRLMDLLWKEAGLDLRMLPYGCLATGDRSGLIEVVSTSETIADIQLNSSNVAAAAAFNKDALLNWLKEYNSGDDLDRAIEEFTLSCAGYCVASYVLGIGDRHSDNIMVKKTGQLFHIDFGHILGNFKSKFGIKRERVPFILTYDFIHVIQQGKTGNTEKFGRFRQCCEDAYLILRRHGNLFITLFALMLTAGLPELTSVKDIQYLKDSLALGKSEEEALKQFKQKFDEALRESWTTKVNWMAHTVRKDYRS
T3 sequence (P42336 whole entry): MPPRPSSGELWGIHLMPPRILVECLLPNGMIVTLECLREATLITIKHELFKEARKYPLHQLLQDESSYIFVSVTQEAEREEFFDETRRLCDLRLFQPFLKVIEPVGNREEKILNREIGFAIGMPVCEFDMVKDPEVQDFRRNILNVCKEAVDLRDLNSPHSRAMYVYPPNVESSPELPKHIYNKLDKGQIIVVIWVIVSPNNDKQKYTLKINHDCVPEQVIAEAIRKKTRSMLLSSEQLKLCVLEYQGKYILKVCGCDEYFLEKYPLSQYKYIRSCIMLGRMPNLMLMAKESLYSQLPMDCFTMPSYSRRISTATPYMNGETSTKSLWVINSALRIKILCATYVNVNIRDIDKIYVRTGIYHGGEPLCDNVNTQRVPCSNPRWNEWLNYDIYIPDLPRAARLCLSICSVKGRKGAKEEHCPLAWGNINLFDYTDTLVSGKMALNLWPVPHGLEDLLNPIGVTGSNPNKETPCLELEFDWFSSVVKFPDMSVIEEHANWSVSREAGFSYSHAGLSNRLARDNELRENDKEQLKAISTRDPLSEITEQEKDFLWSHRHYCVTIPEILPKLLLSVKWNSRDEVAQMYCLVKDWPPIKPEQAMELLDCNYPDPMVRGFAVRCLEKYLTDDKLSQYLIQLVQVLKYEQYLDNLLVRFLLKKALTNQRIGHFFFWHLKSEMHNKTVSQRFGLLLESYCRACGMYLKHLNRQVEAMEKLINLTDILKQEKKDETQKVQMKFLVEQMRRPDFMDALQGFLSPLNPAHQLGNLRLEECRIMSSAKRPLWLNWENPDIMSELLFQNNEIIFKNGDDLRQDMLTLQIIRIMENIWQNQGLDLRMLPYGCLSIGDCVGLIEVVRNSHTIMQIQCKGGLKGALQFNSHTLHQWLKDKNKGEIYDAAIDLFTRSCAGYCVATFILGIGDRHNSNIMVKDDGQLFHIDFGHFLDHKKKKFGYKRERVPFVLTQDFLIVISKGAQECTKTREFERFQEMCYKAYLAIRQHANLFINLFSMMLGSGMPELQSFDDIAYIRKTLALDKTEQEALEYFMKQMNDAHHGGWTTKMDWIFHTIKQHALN

SMILES | melting point [°C] | Kd [1] [nM] | IC50 ([2]; Homo sapiens, PC-3, 1 h) [nM] | IC50 ([3]; Homo sapiens, PC-3, 1 h) [nM] | Kd [4] [nM] | Kd [5] [nM] | Kd [6] [nM] | Kd [7] [nM] | IC50 [2] [nM] | IC50 [3] [nM]
COCCNCc1cc(C2CCCN2c2cc(F)cc(F)c2)c2nc(N3CCOCC3)cnc2c1 (stereo not shown) [Compound 103] | 80 | 1000 | 65 | 28 | 3000 | 1130 | 24500 | 3 |  | 
CCN1CCN(C(=O)c2cc(C(C)Nc3cccc(F)c3)c3nc(N4CCOCC4)cnc3c2)CC1 (single isomer, unassigned) [Compound 114] | 303 | 186 |  |  | 6920 | 1620 | > 30200 | 1 | 50 | 18
CNCCNC(=O)c1cc([C@H](C)Oc2cccc(F)c2)c2nc(N3CCOCC3)cnc2c1 [Compound 123a] | 130 | 5130 |  |  | 11500 | 10200 | 17000 | 107 | > 513 | 380
COc1cccc(N2CCCC2c2cc(C(=O)N(C)C)cc3ncc(N4CCOCC4)nc23)c1 (stereo not shown) [Compound 41] | 80 | 141 | 31 | 22 | 1380 | 389 | > 30200 | 1 |  | 
CC(Nc1ccc(F)c(F)c1)c1cc(C(=O)N(C)C2CCNC2)cc2ncc(N3CCOCC3)nc12 (stereo not shown) [Compound 323b] | 130 | 182 |  |  | 3090 | 3800 | > 30200 | 1 | 209 | 100
O=C(NCCO)c1cc(CNc2cc(F)cc(F)c2)c2nc(N3CCOCC3)cnc2c1 [Compound 333] | 265 | 7410 | > 513 | 148 | 17400 | 5250 | > 30200 | 37 |  | 
OC[C@@H]1CCCN1Cc1cc(C2CCCN2c2cc(F)cc(F)c2)c2nc(N3CCOCC3)cnc2c1 (single isomer, unassigned) [Compound 77] | 80 | 100 | ~76 | ~51 | 646 | 363 | > 30200 | 0.3 |  | 
CC(Nc1ccccc1)c1cc(C(=O)N(C)C)cc2ncc(N3CCOCC3)nc12 (stereo not shown) [Compound 150] | 110 | 501 | 138 | 91 | 3720 | 2880 | > 30200 | 3 |  | 
CNCCNC(=O)c1cc(C2CCCN2c2cc(F)cc(F)c2)c2nc(N3CCOCC3)cnc2c1 (stereo not shown) [Compound 72] | 80 | 17 | 2 | 1 | 204 | 56 | 20400 | 0.2 |  | 
CC(Nc1cc(F)cc(F)c1)c1cc(C(=O)NC(C)(C)CO)cc2ncc(N3CCOCC3)nc12 (stereo not shown) [Compound 169] | 217 | 1120 | 200 | 102 | 5370 | 4070 | 18600 | 8 |  | 
CNCCOCCN(C)C(=O)c1cc(C(C)Nc2ccc(F)c(F)c2)c2nc(N3CCOCC3)cnc2c1 (single isomer, unassigned) [Compound 345a] | 80 | 282 |  |  | 14800 | 4370 | > 30200 | 2 | 79 | 28
CC(Nc1cccc(Cl)c1)c1cc(C(=O)N2CCOCC2)cc2ncc(N3CCOCC3)nc12 (stereo not shown) [Compound 119] | 80 | 490 | 105 | 81 | 11700 | 2240 | > 30200 | 2 |  | 
CN(C)C(=O)c1cc(N(C)Cc2cc(F)cc(F)c2)c2nc(N3CCOCC3)cnc2c1 [Compound 358] | 80 | 2240 | > 513 | > 513 | 17800 | 10000 | > 30200 | 148 |  | 
C[C@H](CO)NCc1cc(F)cc(N2CCCC2c2cc(C(=O)N(C)C)cc3ncc(N4CCOCC4)nc23)c1 (mixture of isomers) [Compound 48] | 80 | 724 | > 513 | ~457 | 14800 | 2460 | > 30200 | 28 |  | 
COC(=O)c1cc(C(C)Oc2ccc(F)c(F)c2)c2nc(N3CCOCC3)cnc2c1 (stereo not shown) [Compound 209] | 183 | 11500 | > 513 | > 513 | 17000 | > 30200 | > 30200 | 316 |  | 
CC(C)N1CCN(C(=O)c2cc(C3CCCN3c3cc(F)cc(F)c3)c3nc(N4CCOCC4)cnc3c2)CC1 (stereo not shown) [Compound 69] | 80 | 195 | 117 | ~32 | 3090 | 891 | > 30200 | 3 |  | 
CC(O)c1cc(C2CCCN2c2cc(F)cc(F)c2)c2nc(N3CCOCC3)cnc2c1 (stereo not shown) [Compound 16] | 80 | 16 | ~5 | 2 | 126 | 93 | 17000 | 1 |  | 
